For 23 molecules, IC50 and Ki results are on record in ChEMBL document CHEMBL1909046, “DrugMatrix in vitro pharmacology data”.

Test [1] has as its target Sodium-dependent noradrenaline transporter (Homo sapiens, UniProt P23975). The test can be described thus: DRUGMATRIX: Norepinephrine Transporter radioligand binding (ligand: [125I] RTI-55). Format: cell membranes, MDCK, Membrane. To be noted: Not Active = under 50% inhibition at 10 µM.
The next test deals with Vasopressin V1a receptor (Homo sapiens, UniProt P37288). Format: cell membranes, Membrane. The note with it: hek293.
The target in another test is Mu-type opioid receptor (Homo sapiens, UniProt P35372). Description: DRUGMATRIX: Opiate mu (OP3, MOP) radioligand binding (ligand: [3H] Diprenorphine). To be noted: cho-k1; Not Active = under 50% inhibition at 10 µM. Format: cell membranes, CHO-K1, Membrane.
For test [2], the target named is Aldo-keto reductase family 1 member B1 (Rattus norvegicus, UniProt P07943). Description: biochemical. Format: tissue-based, Lens of camera-type eye.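 Also: inhibition of aldose reductase enzyme activity, measured with DL-glyceraldehyde as the substrate; in other assays of this panel Not Active means under 50% inhibition at 10 µM.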
Test [3] addresses T1, Polyunsaturated fatty acid lipoxygenase ALOX15 (Oryctolagus cuniculus, UniProt P12530).
T1 sequence (P12530 whole entry): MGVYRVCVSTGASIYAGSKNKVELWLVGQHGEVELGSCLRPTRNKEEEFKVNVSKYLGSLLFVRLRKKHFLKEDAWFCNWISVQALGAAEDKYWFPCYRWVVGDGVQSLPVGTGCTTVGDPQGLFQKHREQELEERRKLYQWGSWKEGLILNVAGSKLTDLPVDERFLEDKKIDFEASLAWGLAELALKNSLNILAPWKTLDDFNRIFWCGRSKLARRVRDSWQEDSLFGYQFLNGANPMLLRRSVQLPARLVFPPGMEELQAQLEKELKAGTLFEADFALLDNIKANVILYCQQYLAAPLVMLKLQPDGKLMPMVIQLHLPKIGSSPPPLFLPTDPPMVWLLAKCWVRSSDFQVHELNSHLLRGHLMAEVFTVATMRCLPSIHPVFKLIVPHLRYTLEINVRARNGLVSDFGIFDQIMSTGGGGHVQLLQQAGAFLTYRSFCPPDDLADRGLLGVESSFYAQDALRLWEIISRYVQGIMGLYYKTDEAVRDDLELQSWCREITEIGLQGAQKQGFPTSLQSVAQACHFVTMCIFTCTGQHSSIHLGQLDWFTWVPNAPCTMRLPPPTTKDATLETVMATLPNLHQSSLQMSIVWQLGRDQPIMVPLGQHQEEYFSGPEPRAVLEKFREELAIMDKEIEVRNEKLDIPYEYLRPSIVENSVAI
The test can be described thus: biochemical. Type of test: tissue-based, Reticulocytes.

For test [4], the target named is T2, Alpha-1A adrenergic receptor (Rattus norvegicus, UniProt P43140).
T2 sequence (P43140 whole entry): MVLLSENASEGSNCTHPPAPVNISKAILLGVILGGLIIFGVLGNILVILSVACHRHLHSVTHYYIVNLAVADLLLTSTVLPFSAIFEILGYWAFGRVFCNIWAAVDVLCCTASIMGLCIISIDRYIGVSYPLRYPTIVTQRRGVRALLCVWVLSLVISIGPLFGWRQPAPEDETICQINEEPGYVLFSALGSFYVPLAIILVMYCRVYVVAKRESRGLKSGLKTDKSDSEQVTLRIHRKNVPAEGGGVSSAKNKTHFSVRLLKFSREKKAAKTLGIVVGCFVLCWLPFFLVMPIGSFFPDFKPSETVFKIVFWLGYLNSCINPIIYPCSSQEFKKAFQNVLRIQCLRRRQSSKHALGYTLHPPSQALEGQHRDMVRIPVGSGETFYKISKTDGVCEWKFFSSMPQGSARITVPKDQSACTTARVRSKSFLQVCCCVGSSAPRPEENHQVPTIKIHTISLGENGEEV
Description: DRUGMATRIX: Alpha-1A adrenergic receptor radioligand binding (ligand: prazosin). Format: cell membranes, Wistar, Submaxillary gland, Membrane. To be noted: Not Active = under 50% inhibition at 10 µM.

Chain of Sodium-dependent noradrenaline transporter (P23975 whole entry): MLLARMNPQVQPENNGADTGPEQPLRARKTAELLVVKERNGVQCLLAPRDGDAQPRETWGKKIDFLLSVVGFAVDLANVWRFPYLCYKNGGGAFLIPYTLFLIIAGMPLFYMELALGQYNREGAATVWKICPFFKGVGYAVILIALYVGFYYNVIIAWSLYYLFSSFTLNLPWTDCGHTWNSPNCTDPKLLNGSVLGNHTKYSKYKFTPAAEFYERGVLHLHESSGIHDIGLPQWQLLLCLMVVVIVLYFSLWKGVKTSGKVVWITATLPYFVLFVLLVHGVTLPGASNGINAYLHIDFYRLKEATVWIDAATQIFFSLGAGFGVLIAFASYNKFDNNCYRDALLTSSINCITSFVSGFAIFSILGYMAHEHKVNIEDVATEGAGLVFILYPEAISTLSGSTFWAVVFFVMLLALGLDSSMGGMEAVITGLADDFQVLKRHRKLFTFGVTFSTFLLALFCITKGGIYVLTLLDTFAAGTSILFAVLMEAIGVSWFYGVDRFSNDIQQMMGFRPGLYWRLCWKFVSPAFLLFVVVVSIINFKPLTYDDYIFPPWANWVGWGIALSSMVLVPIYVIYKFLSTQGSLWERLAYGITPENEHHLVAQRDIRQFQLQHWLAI
Chain of Mu-type opioid receptor (P35372 whole entry): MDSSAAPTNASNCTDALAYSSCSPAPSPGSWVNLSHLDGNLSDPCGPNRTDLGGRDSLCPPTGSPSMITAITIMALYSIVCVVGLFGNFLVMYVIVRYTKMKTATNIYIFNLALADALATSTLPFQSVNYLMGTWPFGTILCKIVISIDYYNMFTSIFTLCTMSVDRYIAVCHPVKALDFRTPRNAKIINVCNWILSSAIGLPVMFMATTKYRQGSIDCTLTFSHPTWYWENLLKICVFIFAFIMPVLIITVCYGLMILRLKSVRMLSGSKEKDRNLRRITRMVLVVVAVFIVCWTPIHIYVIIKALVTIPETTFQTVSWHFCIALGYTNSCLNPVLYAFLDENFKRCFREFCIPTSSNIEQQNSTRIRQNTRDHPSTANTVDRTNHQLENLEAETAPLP
Chain of Vasopressin V1a receptor (P37288 whole entry): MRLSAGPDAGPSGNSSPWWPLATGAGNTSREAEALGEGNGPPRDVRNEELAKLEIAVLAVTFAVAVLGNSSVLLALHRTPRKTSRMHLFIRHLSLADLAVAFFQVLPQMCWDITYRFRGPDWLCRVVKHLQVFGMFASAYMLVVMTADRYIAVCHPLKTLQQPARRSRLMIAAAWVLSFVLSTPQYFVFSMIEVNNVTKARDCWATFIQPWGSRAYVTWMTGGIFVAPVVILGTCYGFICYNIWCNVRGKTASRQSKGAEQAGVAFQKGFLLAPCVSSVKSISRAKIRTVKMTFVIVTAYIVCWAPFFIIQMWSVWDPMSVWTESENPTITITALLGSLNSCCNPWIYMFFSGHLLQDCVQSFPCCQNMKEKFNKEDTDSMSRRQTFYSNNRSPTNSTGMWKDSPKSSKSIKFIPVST

By IC50 is commonly meant the concentration needed to halve the response being measured. Take `Cc1c(C)c2c(c(C)c1O)CCC(C)(COc1ccc(CC3SC(=O)NC3=O)cc1)O2` (configuration not stated) [TROGLITAZONE]: the IC50 result in test [1] (mdck) is “Not Active”; at Vasopressin V1a receptor it was “Not Active”; on Mu-type opioid receptor it was “Not Active”; in test [2] (read-out: IC50), 2040 nM; in test [3] (reticulocytes) it was “Not Active”; in test [4], “Not Active”.

Take `c1ccc([C@H]2CN3CCSC3=N2)cc1` [LEVAMISOLE]: the 50% inhibitory concentration (IC50) entry (in test [1] (mdck); on Vasopressin V1a receptor; on Mu-type opioid receptor; in test [2]; in test [3] (reticulocytes); in test [4]) was “Not Active” throughout.

On to `CC[C@]1(O)C[C@H]2CN(CCc3c([nH]c4ccccc34)[C@@](C(=O)OC)(c3cc4c(cc3OC)N(C=O)[C@H]3[C@@](O)(C(=O)OC)[C@H](OC(C)=O)[C@]5(CC)C=CCN6CC[C@]43[C@@H]65)C2)C1` [VINCRISTINE], for which the IC50 result (in test [1] (mdck); on Vasopressin V1a receptor; on Mu-type opioid receptor; in test [2]; in test [3] (reticulocytes); in test [4]) was “Not Active” in each case.

In general, Ki refers to the dissociation constant of the complex between target and ligand, obtained from inhibition or displacement. Take `O=c1ncn2nc(Sc3ccc(F)cc3F)ccc2c1-c1c(Cl)cccc1Cl` [NEFLAMAPIMOD]: the IC50 was 20400 nM in test [1] (read-out: IC50); “Not Active” against Vasopressin V1a receptor; “Not Active” at Mu-type opioid receptor; “Not Active” in test [2]; “Not Active” in test [3] (reticulocytes); “Not Active” in test [4]. The inhibition constant (Ki) in test [1] (read-out: Ki) amounted to 20200 nM.

On to `NS(=O)(=O)c1cc2c(cc1Cl)NC(C(Cl)Cl)NS2(=O)=O` (configuration not stated) [TRICHLORMETHIAZIDE], for which the concentration for half-maximal inhibition (IC50) entry (in test [1] (mdck); at Vasopressin V1a receptor; at Mu-type opioid receptor; in test [2]; in test [3] (reticulocytes); in test [4]) was “Not Active” in each case.

On to `CCCOc1ccccc1-c1nc2nn[nH]c2c(=O)[nH]1` [ZAPRINAST], for which the IC50 result (in test [1] (mdck); against Vasopressin V1a receptor; on Mu-type opioid receptor; in test [2]; in test [3] (reticulocytes); in test [4]) was “Not Active” in each case.

Regarding `N#CC(C#N)=Cc1ccc(O)c(O)c1` [TYRPHOSTIN 23], the IC50 result was “Not Active” in test [1] (mdck); “Not Active” against Vasopressin V1a receptor; “Not Active” at Mu-type opioid receptor; 202 nM in test [2] (read-out: IC50); “Not Active” in test [3] (reticulocytes); “Not Active” in test [4].

As for `C=CCC1(C(C)CCC)C(=O)NC(=O)NC1=O` (configuration not stated) [SECOBARBITAL], the IC50 entry (in test [1] (mdck); at Vasopressin V1a receptor; at Mu-type opioid receptor; in test [2]; in test [3] (reticulocytes); in test [4]) was “Not Active” throughout.

`OCCN(CCO)c1nc(N2CCCCC2)c2nc(N(CCO)CCO)nc(N3CCCCC3)c2n1` [DIPYRIDAMOLE]: the IC50 result in test [1] (mdck) was “Not Active”; against Vasopressin V1a receptor it was “Not Active”; on Mu-type opioid receptor, “Not Active”; in test [2] it was “Not Active”; in test [3] (read-out: IC50), 6960 nM; in test [4] it was “Not Active”.

For `Nc1c2c(nc3ccccc13)CCCC2` [TACRINE], the 50% inhibitory concentration (IC50) in test [1] (read-out: IC50) was 517 nM; on Vasopressin V1a receptor, “Not Active”; on Mu-type opioid receptor, “Not Active”; in test [2], “Not Active”; in test [3] (reticulocytes), “Not Active”; in test [4] (read-out: IC50) it was 2750 nM. Also, the figures for the Ki in test [1] (read-out: Ki) and in test [4] (read-out: Ki) were 513 nM and 1110 nM, respectively.

Take `Cn1ccnc1S` [METHIMAZOLE]: the 50% inhibitory concentration (IC50) entry (in test [1] (mdck); on Vasopressin V1a receptor; at Mu-type opioid receptor; in test [2]; in test [3] (reticulocytes); in test [4]) was “Not Active” in each case.

`N[C@@H]1[C@H]2CN(c3nc4c(cc3F)c(=O)c(C(=O)O)cn4-c3ccc(F)cc3F)C[C@@H]12` [TROVAFLOXACIN]: the IC50 result (in test [1] (mdck); against Vasopressin V1a receptor; at Mu-type opioid receptor; in test [2]; in test [3] (reticulocytes); in test [4]) was “Not Active” throughout.

As for `CC1(C)O[C@@H]2C[C@H]3[C@@H]4CCC5=CC(=O)C=C[C@]5(C)[C@@]4(F)[C@@H](O)C[C@]3(C)[C@]2(C(=O)CO)O1` [TRIAMCINOLONE ACETONIDE], the IC50 entry (in test [1] (mdck); on Vasopressin V1a receptor; on Mu-type opioid receptor; in test [2]; in test [3] (reticulocytes); in test [4]) was “Not Active” each time.

Take `NC[C@H]1CC[C@H](C(=O)O)CC1` [TRANEXAMIC ACID]: the IC50 result (in test [1] (mdck); at Vasopressin V1a receptor; at Mu-type opioid receptor; in test [2]; in test [3] (reticulocytes); in test [4]) was “Not Active” in each case.

Consider `N[C@@H](Cc1ccc(N(CCCl)CCCl)cc1)C(=O)O`, for which the concentration for half-maximal inhibition (IC50) result (in test [1] (mdck); against Vasopressin V1a receptor; in test [2]; in test [3] (reticulocytes); in test [4]) was “Not Active” each time.

As for SODIUM NITROPRUSSIDE, the IC50 entry (in test [1] (mdck); at Vasopressin V1a receptor; in test [2]; in test [3] (reticulocytes); in test [4]) was “Not Active” each time. Moreover, the Ki result (in test [1] (mdck); at Vasopressin V1a receptor; in test [2]; in test [3] (reticulocytes); in test [4]) was “Not Active” in each case.

As for `Cc1oncc1C(=O)Nc1ccc(C(F)(F)F)cc1` [LEFLUNOMIDE], the concentration for half-maximal inhibition (IC50) entry (against Vasopressin V1a receptor; at Mu-type opioid receptor; in test [2]; in test [3] (reticulocytes); in test [4]) was “Not Active” in each case.

Regarding `CN1CCN(CCCN2c3ccccc3Sc3ccc(Cl)cc32)CC1` [PROCHLORPERAZINE], the IC50 entry on Vasopressin V1a receptor was “Not Active”; at Mu-type opioid receptor it was “Not Active”; in test [2], “Not Active”; in test [3] (reticulocytes), “Not Active”; in test [4] (read-out: IC50), 32 nM. For the same molecule, in test [4] (read-out: Ki), the Ki was found to be 13 nM.

Take `CC[C@@H](CO)NC(=O)[C@@H]1C=C2c3cccc4[nH]cc(c34)C[C@H]2N(C)C1` [METHYLERGONOVINE]: the IC50 result (in test [1] (mdck); on Vasopressin V1a receptor; in test [2]; in test [3] (reticulocytes); in test [4]) was “Not Active” in each case.

For the molecule `CC(C)(C)NC(=O)[C@@H]1C[C@@H]2CCCC[C@@H]2CN1C[C@@H](O)[C@H](Cc1ccccc1)NC(=O)[C@H](CC(N)=O)NC(=O)c1ccc2ccccc2n1`, the 50% inhibitory concentration (IC50) entry in test [1] (mdck), in test [2], in test [3] (reticulocytes) and in test [4] was “Not Active” throughout.

In the case of `CC(C)N1CCN(c2ccc(OCC3COC(Cn4cncn4)(c4ccc(Cl)cc4Cl)O3)cc2)CC1` (configuration not stated) [TERCONAZOLE], the IC50 result on Vasopressin V1a receptor was “Not Active”; on Mu-type opioid receptor, “Not Active”; in test [2], “Not Active”; in test [3] (read-out: IC50) it was 2450 nM; in test [4] (read-out: IC50), 13300 nM. The Ki in test [4] (read-out: Ki) was found to be 5370 nM.

`Cc1nc2n(c(=O)c1CCN1CCC(c3noc4cc(F)ccc34)CC1)CCCC2` [RISPERIDONE]: the IC50 entry (in test [1] (mdck); against Vasopressin V1a receptor; at Mu-type opioid receptor; in test [2]; in test [3] (reticulocytes)) was “Not Active” each time.

On to `CCCCc1oc2ccccc2c1C(=O)c1cc(I)c(OCCN(CC)CC)c(I)c1` [AMIODARONE], for which the half-maximal inhibitory concentration (IC50) entry (against Vasopressin V1a receptor; in test [2]; in test [3] (reticulocytes); in test [4]) was “Not Active” each time.
